Measured values taken from patent publication US20230092163A1, “COMPOUNDS AND COMPOSITIONS FOR TREATING CONDITIONS ASSOCIATED WITH STING ACTIVITY” (IFM Due, Inc., priority 2019, published 2023).

Molecular target: STING (Homo sapiens, UniProt Q86WV6, G230A/H232R/R293Q/R71H)
Test: STING reporter assay: THP1-Dual KO-IFNAR2 cells stimulated with 2′3′cGAMP, luciferase reporter activity
Type: cell-based
Conditions: 15 μM 2′3′cGAMP, 24h
In short: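 THP1-Dual KO-IFNAR2 cells (2×10E6 cells/mL) treated with compounds at 0.0017-100 μM, then stimulated with 2′3′cGAMP (15 μM final) delivered by Lipofectamine 2000; 24 h at 37° C. Supernatant luciferase read by QUANTI-Luc Plus luminescence; EC50 from dose-response.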

Sequence of STING (Q86WV6 whole entry R71H/G230A/H232R/R293Q): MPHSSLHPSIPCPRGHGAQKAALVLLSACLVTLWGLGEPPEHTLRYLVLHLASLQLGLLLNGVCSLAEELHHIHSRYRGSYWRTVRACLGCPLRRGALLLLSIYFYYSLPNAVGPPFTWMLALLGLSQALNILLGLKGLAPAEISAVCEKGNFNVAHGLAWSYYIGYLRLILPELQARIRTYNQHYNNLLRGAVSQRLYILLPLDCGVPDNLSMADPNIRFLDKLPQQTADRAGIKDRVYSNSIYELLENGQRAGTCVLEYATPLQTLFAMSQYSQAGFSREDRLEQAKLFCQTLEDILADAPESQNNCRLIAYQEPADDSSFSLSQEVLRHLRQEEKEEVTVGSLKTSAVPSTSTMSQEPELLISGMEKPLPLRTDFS

## Clc1ccc2ccc(Nc3ccc4cc[nH]c4c3)nc2c1Cl [Compound 425, 7,8-dichloro-N-(1H-indol-6-yl)quinolin-2-amine]
Numeric bounds
  EC50: > 30 µM

## O=C(NCCOc1cccc(Br)c1)Nc1ccc2cc[nH]c2c1 [Compound 175]
Class symbols
  EC50: 1 to 5 µM

## O=C(Nc1ccc(C(F)(F)F)cc1)Nc1cc2[nH]ccc2cn1 [Compound 110]
Class symbols
  EC50: 5 to 100 µM

## FC(F)(F)c1c(Cl)ccc2nc(Nc3ccc4cc[nH]c4c3)ccc12 [Compound 553]
Class symbols
  EC50: 0.2 to 1 µM

## C[C@H](NC(=O)Nc1cc(Cl)c2cc[nH]c2c1)c1cc(Cl)cc(C(F)(F)F)c1 (single isomer, unassigned) [Compound 520]
Class symbols
  EC50: 0.2 to 1 µM

## CC(C)(C)c1ccnc(Nc2ccc3cc[nH]c3c2)c1 [Compound 402, N-(4-(tert-butyl)pyridin-2-yl)-1H-indol-6-amine]
Class symbols
  EC50: 5 to 100 µM

## CCCCc1ccc(Nc2c(Nc3ccc4c(c3)CC=N4)c(=O)c2=O)cc1 [Compound 618]
Class symbols
  EC50: 1 to 5 µM

## CC1(C)Oc2ccc(Nc3ccc4cc[nH]c4c3)nc2NC1=O [Compound 585, 6-[(1H-indol-6-yl)amino]-2,2-dimethyl-2H,3H,4H-pyrido[3,2-b][1,4]oxazin-3-one]
Numeric bounds
  EC50: > 30 µM

## CN(C(=O)Nc1ccc2cc[nH]c2c1)c1ccc(C(F)(F)F)cc1 [Compound 267]
Numeric bounds
  EC50: > 67.1 µM

## COC(=O)c1ccc(Nc2ccc3cc[nH]c3c2)nc1OC [Compound 597]
Numeric bounds
  EC50: > 30 µM

## FC(F)(F)c1cc2nc(Nc3ccc4cc[nH]c4c3)ccc2cc1Cl [Compound 556]
Class symbols
  EC50: 1 to 5 µM

## O=C(NCCCc1cncc(C(F)(F)F)c1)Nc1ccc2cc[nH]c2c1 [Compound 177]
Class symbols
  EC50: 1 to 5 µM

## N#Cc1cc(NC(=O)Nc2ccc(C(F)(F)F)cc2)cc2[nH]ccc12 [Compound 245]
Class symbols
  EC50: 0.04 to 0.2 µM

## O=C(Nc1cnc2ccc(C(F)(F)F)cc2c1)Nc1ccc2[nH]ccc2c1 [Compound 286]
Numeric bounds
  EC50: > 30 µM

## N#Cc1cc(Nc2ccc3ccc(C(F)(F)F)cc3n2)cc2[nH]ccc12 [Compound 384]
Class symbols
  EC50: 1 to 5 µM

## O=C(NCCc1cccc(Cl)c1)Nc1ccc2[nH]ccc2c1 [Compound 354]
Numeric bounds
  EC50: > 30 µM

## Cc1ccc(CCNC(=O)Nc2ccc3[nH]ccc3c2)cc1C [Compound 356]
Numeric bounds
  EC50: > 30 µM

## O=C(NCc1cnccn1)Nc1ccc2[nH]ccc2c1 [Compound 333]
Numeric bounds
  EC50: > 30 µM

## FC(F)(F)c1ccc2ncc(Nc3ccc4cc[nH]c4c3)nc2c1 [Compound 555]
Class symbols
  EC50: 1 to 5 µM

## FC(F)(F)c1cccc(Nc2ccc3cc[nH]c3c2)n1 [Compound 609]
Class symbols
  EC50: 5 to 100 µM

## FC(F)(F)c1cccc2nc(Nc3ccc4cc[nH]c4c3)ccc12 [Compound 574, N-(1H-indol-6-yl)-5-(trifluoromethyl)quinolin-2-amine]
Class symbols
  EC50: 0.2 to 1 µM

## FC(F)(F)c1cc(Nc2ccc3cc[nH]c3c2)nc(Nc2ccc3cc[nH]c3c2)c1 [Compound 570, N2,N6-bis(1H-indol-6-yl)-4-(trifluoromethyl)pyridine-2,6-diamine]
Class symbols
  EC50: 0.2 to 1 µM

## COc1ccc2ccc(Nc3ccc4cc[nH]c4c3)nc2c1 [Compound 587, N-(1H-indol-6-yl)-7-methoxyquinolin-2-amine]
Class symbols
  EC50: 1 to 5 µM

## Cc1ccc(CNC(=O)Nc2ccc3cc[nH]c3c2)cc1C [Compound 223]
Numeric bounds
  EC50: > 30 µM

## O=C(NCCc1ncc(C(F)(F)F)cc1Cl)Nc1ccc2cc[nH]c2c1 [Compound 201]
Class symbols
  EC50: 1 to 5 µM

## O=C(Nc1ccc(Cl)c(F)c1)Nc1ccc2[nH]ccc2c1 [Compound 341]
Numeric bounds
  EC50: > 30 µM

## Cc1ccc(Nc2ccc3cc[nH]c3c2)nc1C(F)(F)F [Compound 421, N-(5-methyl-6-(trifluoromethyl)pyridin-2-yl)-1H-indol-6-amine]
Class symbols
  EC50: 1 to 5 µM

## FC(F)(F)Oc1ccc2c(Cl)cc(Nc3ccc4cc[nH]c4c3)nc2c1 [Compound 576, 4-chloro-N-(1H-indol-6-yl)-7-(trifluoromethoxy)quinolin-2-amine]
Class symbols
  EC50: 1 to 5 µM

## O=C(NCc1cc(Cl)cc(C(F)(F)F)c1)Nc1ccc2[nH]ccc2c1 [Compound 318]
Class symbols
  EC50: 5 to 100 µM

## O=C(Nc1ccc2cc[nH]c2c1)Nc1ccon1 [Compound 190]
Numeric bounds
  EC50: > 30 µM

## c1cnc2c(Nc3ccc4cc[nH]c4c3)nccc2c1 [Compound 407, N-(1H-indol-6-yl)-1,7-naphthyridin-8-amine]
Numeric bounds
  EC50: > 30 µM

## Cc1nc(Nc2ccc3ccn(-c4ccc(OC(C)C)c(C)n4)c3c2)ccc1OC(C)C [Compound 569, N,1-bis[6-methyl-5-(propan-2-yloxy)pyridin-2-yl]-1H-indol-6-amine]
Numeric bounds
  EC50: > 30 µM

## O=C(Nc1ccc(N2CC(F)(F)C2)nc1)Nc1ccc2c(F)c[nH]c2c1 [Compound 517]
Numeric bounds
  EC50: > 30 µM

## COc1nc(Nc2ccc3cc[nH]c3c2)ccc1CO [Compound 561, {6-[(1H-indol-6-yl)amino]-2-methoxypyridin-3-yl}methanol]
Numeric bounds
  EC50: > 30 µM

## Cn1cc(-c2cc(NC(=O)Nc3ccc(C(F)(F)F)cc3)cc3[nH]ccc23)cn1 [Compound 197]
Numeric bounds
  EC50: > 30 µM

## O=C(Nc1ccc2c(F)c[nH]c2c1)Nc1ccc(N2CC(F)(F)C2)cn1 [Compound 515]
Numeric bounds
  EC50: > 30 µM

## CNC(=O)Nc1ccc2[nH]cc(NC(=O)Nc3ccc(C(F)(F)F)cc3)c2c1 [Compound 275]
Class symbols
  EC50: 1 to 5 µM

## CC(CNC(=O)Nc1ccc2[nH]ccc2c1)c1ccccc1 (centres unmarked) [Compound 325]
Numeric bounds
  EC50: > 30 µM

## CCCCC1CCC(NC(=O)Nc2ccc3[nH]c(Cl)cc3c2)CC1 (centres unmarked) [Compound 372]
Numeric bounds
  EC50: > 100 µM

## Fc1cc2ccc(Nc3ccc4cc[nH]c4c3)nc2cc1C(F)(F)F [Compound 551]
Class symbols
  EC50: 0.2 to 1 µM

## O=C(Nc1ccc(C(F)(F)F)cc1)Nc1cc(N2CCCC(Cn3cncn3)C2)c2cc[nH]c2c1 (centres unmarked) [Compound 572]
Class symbols
  EC50: 5 to 100 µM

## O=C(Nc1ccc(S(=O)(=O)N2CCCC2)cc1)Nc1ccc2[nH]ccc2c1 [Compound 284]
Numeric bounds
  EC50: > 30 µM

## O=C(Nc1ccc(C(F)(F)F)cc1)Nc1ccc2[nH]ccc2c1 [Compound 102]
Class symbols
  EC50: 1 to 5 µM

## O=C(NCCc1ccc(OC(F)(F)F)cc1)Nc1ccc2cc[nH]c2c1 [Compound 183]
Class symbols
  EC50: 0.2 to 1 µM

## O=C(Nc1ccc(Oc2c(F)cccc2F)cc1)Nc1ccc2cc[nH]c2c1 [Compound 160]
Class symbols
  EC50: 1 to 5 µM

## O=C1CCc2nc(Nc3ccc4cc[nH]c4c3)ccc21 [Compound 596, 2-[(1H-indol-6-yl)amino]-5H,6H,7H-cyclopenta[b]pyridin-5-one]
Numeric bounds
  EC50: > 30 µM

## Cc1cc(Nc2ccc3cc[nH]c3c2)nc(C(F)(F)F)c1 [Compound 578]
Class symbols
  EC50: 0.2 to 1 µM

## N#Cc1cc(Nc2ccc3cc[nH]c3c2)cc(Nc2ccc3cc[nH]c3c2)n1 [Compound 582, 4,6-bis[(1H-indol-6-yl)amino]pyridine-2-carbonitrile]
Class symbols
  EC50: 0.2 to 1 µM

## O=C(Nc1ccc(C(F)(F)F)cc1)Nc1ccc2c(F)c[nH]c2c1 [Compound 242, 3-(3-fluoro-1H-indol-6-yl)-1-[4-(trifluoromethyl)phenyl]urea]
Class symbols
  EC50: 0.2 to 1 µM

## Cc1cc2ccc(C(F)(F)F)cc2nc1Nc1ccc2cc[nH]c2c1 [Compound 565]
Class symbols
  EC50: 0.2 to 1 µM

## O=C(Nc1ccc2[nH]ccc2c1)Nc1ccc2[nH]ccc2c1 [Compound 283]
Numeric bounds
  EC50: > 30 µM

## CN(C(=O)Nc1ccc(C(F)(F)F)cc1)c1ccc2cc[nH]c2c1 [Compound 264]
Class symbols
  EC50: 5 to 100 µM

## O=C(NCc1ccc(C(F)(F)F)c(Cl)c1)Nc1ccc2[nH]ccc2c1 [Compound 319]
Numeric bounds
  EC50: > 30 µM

## CCCCc1cccc(NC(=O)Nc2ccc3cc[nH]c3c2)c1 [Compound 270]
Class symbols
  EC50: 0.04 to 0.2 µM

## N#Cc1cc2ccc(NC(=O)Nc3ccc(C(F)(F)F)cc3)cc2[nH]1 [Compound 255]
Class symbols
  EC50: 5 to 100 µM

## CCCCCCCCc1ccc(NC(=O)Nc2ccc3cc[nH]c3c2)cc1 [Compound 237]
Class symbols
  EC50: 0.2 to 1 µM

## Cn1ccc2cc(NC(=O)Nc3ccc(C(F)(F)F)cc3)ccc21 [Compound 377]
Numeric bounds
  EC50: > 100 µM

## CCC(NC(=O)Nc1ccc2cc[nH]c2c1)c1cccc(C(F)(F)F)c1 (centres unmarked) [Compound 199]
Class symbols
  EC50: 1 to 5 µM

## Cc1cc(C)nc(NC(=O)Nc2ccc3[nH]ccc3c2)c1 [Compound 335]
Numeric bounds
  EC50: > 30 µM

## FC(F)(F)c1ccc2ccc(Nc3ccc4cc[nH]c4c3)nc2c1 [Compound 381]
Class symbols
  EC50: 0.2 to 1 µM

## COc1nc(Nc2ccc3cc[nH]c3c2)ccc1F [Compound 391, N-(5-fluoro-6-methoxypyridin-2-yl)-1H-indol-6-amine]
Class symbols
  EC50: 5 to 100 µM

## Cc1ccc(CNC(=O)Nc2ccc3[nH]ccc3c2)cc1 [Compound 339]
Numeric bounds
  EC50: > 30 µM

## O=C(Nc1ccc(Cl)c(F)c1)Nc1ccc2cc[nH]c2c1 [Compound 226]
Class symbols
  EC50: 0.2 to 1 µM

## CC(Cc1cccc(C(F)(F)F)c1)NC(=O)Nc1ccc2[nH]ccc2c1 (centres unmarked) [Compound 288]
Numeric bounds
  EC50: > 30 µM

## O=C(NCc1cc(Cl)cc(C(F)(F)F)c1)Nc1cc(Cl)c2cc[nH]c2c1 [Compound 536]
Class symbols
  EC50: 0.2 to 1 µM

## O=C(Nc1ccc2cc[nH]c2c1)Nc1ccc(C(F)(F)F)cn1 [Compound 269]
Class symbols
  EC50: 0.2 to 1 µM

## O=C(Nc1cc(F)cc(C(F)(F)F)c1)Nc1ccc2c(F)c[nH]c2c1 [Compound 535]
Class symbols
  EC50: 0.2 to 1 µM

## O=C(Nc1cccc(C(F)F)c1)Nc1ccc2[nH]ccc2c1 [Compound 303]
Numeric bounds
  EC50: > 30 µM

## Cc1c(Nc2ccc3ccc(C(F)(F)F)cc3n2)ccc2cc[nH]c12 [Compound 557]
Numeric bounds
  EC50: > 30 µM

## CN(c1ccc2cc[nH]c2c1)c1ccc2ccc(C(F)(F)F)cc2n1 [Compound 605, N-(1H-indol-6-yl)-N-methyl-7-(trifluoromethyl)quinolin-2-amine]
Class symbols
  EC50: 5 to 100 µM

## Cc1nc(Nc2ccc3cc[nH]c3c2)ccc1Br [Compound 399, N-(5-bromo-6-methylpyridin-2-yl)-1H-indol-6-amine]
Numeric bounds
  EC50: > 30 µM

## O=C(NCCSCc1c(Cl)cccc1Cl)Nc1ccc2cc[nH]c2c1 [Compound 204]
Class symbols
  EC50: 1 to 5 µM

## FC(F)(F)c1nc(Nc2ccc3cc[nH]c3c2)ccc1Cl [Compound 405, N-(5-chloro-6-(trifluoromethyl)pyridin-2-yl)-1H-indol-6-amine]
Class symbols
  EC50: 0.2 to 1 µM

## CC(F)(F)c1ccnc(Nc2ccc3cc[nH]c3c2)c1 [Compound 416, N-(4-(1,1-difluoroethyl)pyridin-2-yl)-1H-indol-6-amine]
Numeric bounds
  EC50: > 30 µM
